As a reminder, the AUC(0-inf) is total exposure, with the tail of the curve extrapolated. The AUC(0-t) is the area under the concentration-time curve up to a stated or last time point. For orientation: Cmax means the maximum level reached in the sampled fluid or tissue. As a reminder, the Tmax is the time from dosing to the highest level. As a reminder, the half-life is the time in which the quantity being followed falls by half.

We go through two molecules from paper PMC6017738, “A Comparative Pharmacokinetic Study by UHPLC-MS/MS of Main Active Compounds after Oral Administration of Zushima-Gancao Extract in Normal and Adjuvant-Induced Arthritis Rats” (Molecules : A Journal of Synthetic Chemistry and Natural …, 2018).

The nature of data set [1]: Pharmacokinetics in normal rats after oral administration of Zushima-Gancao extract (UHPLC-MS/MS of plasma). Type of data set: in vivo. Conditions: male, Sprague-Dawley, rat, oral Zushima-Gancao extract 10 mL/kg single dose, n = 6, mean ± SD.
Experimental: (§1) The plasma concentration–time curves (C-T curves) of nine analytes are presented in Figure 2, and the corresponding pharmacokinetic parameters, including Cmax, Tmax, AUC (0–t), AUC (0–∞) (AUC: area under concentration-time curve), and t1/2, were obtained using DAS 3.0 pharmacokinetic software (Chinese Pharmacological Association, China). Statistical differences between groups were analyzed using Student’s t-tests, and p-values less than 0.05 were considered statistically significant.
(§2) The chromatography experiment was carried out using a UHPLC system (Thermo Fisher, San Jose, CA, USA), equipped with a Hypersil GOLD C18 column (100 mm × 2.1 mm, 3 μm, Thermo Fisher, San Jose, CA, USA) maintained at 35 °C. The mobile phase consisted of 0.05% formic acid in water (Solvent A) and acetonitrile (Solvent B), and the flow rate was 0.3 mL/min. In order to completely separate all the analytes, the 10 min gradient elution program was used as follows: 0–1 min, 10% B; 1–5 min, 10–90% B; 5–6 min, 90–100% B; 6–8 min, 100% B; 8–9 min, 100–10% B; 9–10 min, 10% B, and the sample injection volume was 3 μL.
(§3) Mass spectrometry detection was operated on TSQ Vantage triple-stage quadrupole mass spectrometer (Thermo Fisher, San Jose, CA, USA) equipped with an electrospray ionization (ESI) source. Quantification of the analytes was performed using selective reaction monitor (SRM) in the negative ionization mode. Spray voltage, sheath gas pressure, auxiliary gas pressure, vaporizer temperature, and capillary temperature were set as 3.0 kV, 45 arb, 25 arb, 450 °C, and 350 °C, respectively.
(§4) Male Sprague–Dawley (SD) rats weighing 180–220 g (SCXK-2012-0002) were supplied by Silaike Lab Animals Ltd. (Shanghai, China). They were all kept in a stable condition (temperature, 22 ± 2 °C; relative humidity, 45–60%) with 12 h light/dark cycles for five days before animal experiments.
(§5) Rats were randomly divided into normal and AA groups with six rats in each group. The arthritic model rats were prepared as our previous research [19]. AA rats were intracutaneously injected with 0.1 mL of FAC in the left hind footpad and normal rats were injected with sterile saline. The FAC solution was prepared as follows: bacillus calmette-guerin (BCG) was bathed in water at 80 °C for 30 min, and then dissolved in a liquid paraffin–lanolin mixture (3:2, v/v). Immediately prior to use, the FAC solution were sterilized for 30 min at 120 °C.
(§6) After model construction, the rats were fed for 20 days. All rats were fasted for 12 h before drug administration, with free access to water. Each rat was administered with Zushima-Gancao extract at a single dose of 10 mL/kg. Blood samples (approximately 0.3 mL) were collected into heparinized micro-centrifuge tubes from the postorbital venous plexus veins of rats at specific time points of 0, 0.08, 0.17, 0.33, 0.5, 1, 2, 3, 5, 8, 12, 24, and 36 h. All blood samples were centrifuged immediately at 5000 rpm for 6 min, and the plasma were obtained and stored at −80 °C until analysis.
(§7) A liquid–liquid extraction (LLE) method was applied to extract the compounds from thawed rat plasma samples, aliquots of 100 μL plasma sample were transferred into a 1.5 mL Eppendorf tube, and 10 μL of methanol, 10 μL of hydrochloric acid (2 mol/L), and 10 μL of IS (130 ng/mL) were added separately. The mixture was vortexed for 30 s, and 500 μL of ethyl acetate was added and mixed by vortexing for 10 min. The supernatant (about 450 μL) was transferred into another tube after centrifugation at 16,000 rpm for 10 min and then evaporated to dryness at 45 °C, 15 kPa in a Thermo SPD1010-230 SpeedVac Concentrator (Thermo Fisher, San Jose, CA, USA). The residue was dissolved in 100 μL of initial mobile phase by vortexing for 5 min, and a further centrifugation at 17,000 rpm for 10 min was applied after the residue was re-dissolved. The supernatant was injected into the UHPLC-MS/MS system for analysis.
A short description of data set [2]: Stability test of analytes in rat plasma (QC samples). The format is physicochemical. Conditions: for 24 h Stability RE: autosampler at 4 °C for 24 h; for Short-Term Stability RE: room temperature for 4 h; for Freeze-Thaw Stability RE: three freeze-thaw cycles; for Long-Term Stability RE: −80 °C for a week. Here is the method:
Stability. To evaluate the stability of each component during analysis, QC samples at low, middle, and high concentrations (three samples for each concentration) were tested under different conditions, including placing QC samples in the autosampler at 4 °C for 24 h, at room temperature for 4 h, at −80 °C for a week, and three freeze-thaw cycles.

Data set [3] in a line: Pharmacokinetics in adjuvant-induced arthritis (AA) rats after oral administration of Zushima-Gancao extract (UHPLC-MS/MS of plasma). To be noted: for AUC(0-inf) / AUC(0-t) / Cmax / Tmax / half-life: male, Sprague-Dawley, rat, plasma, po, 10 mL/kg.
Experimental: as §1, §2, §3, §4, §5, §6, §7

`O=C1C[C@@H](c2ccc(O)cc2)Oc2cc(O)ccc21` [LG, liquiritigenin]: in data set [1], the AUC(0-inf) worked out at 0.17 ± 0.0625 µg·h/mL, the AUC(0-t) worked out at 0.169 ± 0.0624 µg·h/mL, the Cmax is 0.0239 ± 0.00372 µg/mL and the Tmax was 3.86 ± 1.98 h. In data set [1], this molecule had a half-life of 1.66 ± 0.44 h. In addition, in data set [2] (high concentration), the “24 h Stability RE” value turned out to be 8.56%, the “Short-Term Stability RE” value stood at 1.5%, the “Freeze-Thaw Stability RE” value came out at 6.75% and the “Long-Term Stability RE” value is 3.89%. In data set [2] (low concentration), the “24 h Stability RE” value is reported as 6.72%, the “Short-Term Stability RE” value is reported as 9.76%, the “Freeze-Thaw Stability RE” value turned out to be 7.22% and the “Long-Term Stability RE” value is reported as 2.87%. In data set [2] (middle concentration), the “24 h Stability RE” value was 8.15%, the “Short-Term Stability RE” value was found to be 11.16%, the “Freeze-Thaw Stability RE” value was determined as 7.96% and the “Long-Term Stability RE” value was determined as 0.58%. For the same molecule, in data set [3], the AUC(0-inf) is 0.194 ± 0.0844 µg·h/mL, the AUC(0-t) was determined as 0.193 ± 0.0832 µg·h/mL, the Cmax stood at 0.0297 ± 0.0107 µg/mL and the Tmax was determined as 4.7 ± 2.52 h. Besides, the half-life in data set [3] is 2.3 ± 0.95 h.
`O=C1C[C@@H](c2ccc(O[C@@H]3O[C@H](CO)[C@@H](O)[C@H](O)[C@H]3O)cc2)Oc2cc(O)ccc21` [LQ, liquiritin]: in data set [1], the AUC(0-inf) is 0.0456 ± 0.0039 µg·h/mL, the AUC(0-t) came out at 0.0455 ± 0.00389 µg·h/mL, the peak level (Cmax) was 0.0588 ± 0.0125 µg/mL and the half-life is 0.47 ± 0.15 h. Moreover, in data set [2] (high concentration), the “24 h Stability RE” value turned out to be 4.89%, the “Short-Term Stability RE” value is recorded as 5.23%, the “Freeze-Thaw Stability RE” value was found to be 7.92% and the “Long-Term Stability RE” value was found to be 7.57%. Besides, in data set [2] (low concentration), the “24 h Stability RE” value is listed as 2.03%, the “Short-Term Stability RE” value is recorded as −9.95%, the “Freeze-Thaw Stability RE” value amounted to 13.76% and the “Long-Term Stability RE” value worked out at 8.14%. Also, in data set [2] (middle concentration), the “24 h Stability RE” value came to 3.31%, the “Short-Term Stability RE” value was 0.14%, the “Freeze-Thaw Stability RE” value was −5.95% and the “Long-Term Stability RE” value was −0.13%. The “decrease of AUC (0–∞) compared with the normal group” value in data set [3] (AA rats versus normal rats, oral Zushima-Gancao extract) is listed as 24.57%. The “change of Cmax in AA rats versus normal rats” value in data set [3] (AA versus normal rats, p < 0.05) is recorded as “decreased remarkably”. Also, in data set [3], the AUC(0-inf) was 0.0344 ± 0.00889 µg·h/mL, the AUC(0-t) came to 0.0331 ± 0.0068 µg·h/mL, the maximum concentration (Cmax) stood at 0.0301 ± 0.0138 µg/mL and the Tmax stood at 0.21 ± 0.1 h. For the same molecule, the half-life in data set [3] is 0.75 ± 0.65 h.
